ChEMBL document CHEMBL1154758 (J Med Chem, 2010)

How the values were obtained:
Carbonic anhydrase 3 = Carbonic anhydrase 3 (Homo sapiens, UniProt P07451)
Carbonic anhydrase 13 = Carbonic anhydrase 13 (Homo sapiens, UniProt Q8N1Q1)
Carbonic anhydrase 15 = target: T1, Carbonic anhydrase 15 (Mus musculus, UniProt Q99N23)
T1 sequence (Q99N23 whole entry): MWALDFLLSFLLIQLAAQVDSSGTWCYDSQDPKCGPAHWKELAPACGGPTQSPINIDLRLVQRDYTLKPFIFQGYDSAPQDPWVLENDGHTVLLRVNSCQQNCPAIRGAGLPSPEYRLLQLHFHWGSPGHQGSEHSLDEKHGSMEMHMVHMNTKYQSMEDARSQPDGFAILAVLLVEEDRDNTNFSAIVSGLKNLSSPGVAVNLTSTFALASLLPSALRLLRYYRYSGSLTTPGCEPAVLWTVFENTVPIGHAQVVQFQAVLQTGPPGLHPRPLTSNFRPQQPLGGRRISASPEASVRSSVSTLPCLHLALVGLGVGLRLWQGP

Carbonic anhydrase 6 = Carbonic anhydrase 6 (Homo sapiens, UniProt P23280)
Carbonic anhydrase 1 = Carbonic anhydrase 1 (Homo sapiens, UniProt P00915)
Carbonic anhydrase 7 = Carbonic anhydrase 7 (Homo sapiens, UniProt P43166); assay: Inhibition of human recombinant CA7 by stopped flow CO2 hydrase assay
Carbonic anhydrase 14 = Carbonic anhydrase 14 (Homo sapiens, UniProt Q9ULX7)
[1] = target: Carbonic anhydrase 5B, mitochondrial (Homo sapiens, UniProt Q9Y2D0)
Carbonic anhydrase 12 = Carbonic anhydrase 12 (Homo sapiens, UniProt O43570); assay: Inhibition of human recombinant CA12 by stopped flow CO2 hydrase assay
[2] = target: Carbonic anhydrase 5A, mitochondrial (Homo sapiens, UniProt P35218)
Carbonic anhydrase 4 = Carbonic anhydrase 4 (Homo sapiens, UniProt P22748)
Carbonic anhydrase 9 = Carbonic anhydrase 9 (Homo sapiens, UniProt Q16790)

Chain of Carbonic anhydrase 13 (Q8N1Q1 whole entry): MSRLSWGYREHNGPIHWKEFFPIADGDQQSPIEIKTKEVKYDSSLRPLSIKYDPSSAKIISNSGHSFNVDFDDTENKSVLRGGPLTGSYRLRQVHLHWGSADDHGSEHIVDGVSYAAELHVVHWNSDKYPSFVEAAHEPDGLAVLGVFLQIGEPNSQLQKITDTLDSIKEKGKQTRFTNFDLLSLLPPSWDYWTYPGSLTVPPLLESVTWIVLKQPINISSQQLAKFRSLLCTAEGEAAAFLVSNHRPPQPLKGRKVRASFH
Chain of Carbonic anhydrase 3 (P07451 whole entry): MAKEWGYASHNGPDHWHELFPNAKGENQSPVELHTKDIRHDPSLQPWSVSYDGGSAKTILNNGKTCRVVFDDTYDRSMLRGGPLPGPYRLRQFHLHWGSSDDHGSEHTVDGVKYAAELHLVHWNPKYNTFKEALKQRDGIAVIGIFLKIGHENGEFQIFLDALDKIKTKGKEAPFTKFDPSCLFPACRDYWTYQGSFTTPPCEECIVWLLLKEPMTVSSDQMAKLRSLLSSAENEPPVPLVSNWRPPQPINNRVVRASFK
Chain of Carbonic anhydrase 6 (P23280 whole entry): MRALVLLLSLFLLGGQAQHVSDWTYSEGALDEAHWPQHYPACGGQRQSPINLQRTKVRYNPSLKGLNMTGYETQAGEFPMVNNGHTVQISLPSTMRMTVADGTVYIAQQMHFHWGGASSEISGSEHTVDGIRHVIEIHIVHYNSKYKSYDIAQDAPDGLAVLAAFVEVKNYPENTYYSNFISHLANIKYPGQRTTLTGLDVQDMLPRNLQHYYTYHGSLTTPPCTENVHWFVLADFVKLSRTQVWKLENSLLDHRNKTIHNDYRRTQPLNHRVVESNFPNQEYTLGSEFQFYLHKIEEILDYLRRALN
Chain of Carbonic anhydrase 5A, mitochondrial (P35218 whole entry): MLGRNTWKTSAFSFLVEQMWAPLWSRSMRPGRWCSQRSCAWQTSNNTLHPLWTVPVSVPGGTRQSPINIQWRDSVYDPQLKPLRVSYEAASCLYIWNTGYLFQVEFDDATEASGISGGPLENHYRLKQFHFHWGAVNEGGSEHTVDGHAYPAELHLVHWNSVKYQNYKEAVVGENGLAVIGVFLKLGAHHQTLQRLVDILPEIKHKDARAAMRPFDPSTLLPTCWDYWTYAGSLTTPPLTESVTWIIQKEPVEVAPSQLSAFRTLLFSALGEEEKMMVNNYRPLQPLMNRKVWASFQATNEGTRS
Chain of Carbonic anhydrase 5B, mitochondrial (Q9Y2D0 whole entry): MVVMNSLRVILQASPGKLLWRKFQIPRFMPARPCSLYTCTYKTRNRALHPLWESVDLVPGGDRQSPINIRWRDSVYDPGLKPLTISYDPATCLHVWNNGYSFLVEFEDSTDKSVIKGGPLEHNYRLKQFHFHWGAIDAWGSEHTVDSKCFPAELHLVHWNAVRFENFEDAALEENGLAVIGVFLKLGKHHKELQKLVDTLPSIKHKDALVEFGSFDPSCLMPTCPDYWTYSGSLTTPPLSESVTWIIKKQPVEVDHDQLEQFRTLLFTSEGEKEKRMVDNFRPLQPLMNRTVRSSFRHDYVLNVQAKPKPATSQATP
Chain of Carbonic anhydrase 7 (P43166 whole entry): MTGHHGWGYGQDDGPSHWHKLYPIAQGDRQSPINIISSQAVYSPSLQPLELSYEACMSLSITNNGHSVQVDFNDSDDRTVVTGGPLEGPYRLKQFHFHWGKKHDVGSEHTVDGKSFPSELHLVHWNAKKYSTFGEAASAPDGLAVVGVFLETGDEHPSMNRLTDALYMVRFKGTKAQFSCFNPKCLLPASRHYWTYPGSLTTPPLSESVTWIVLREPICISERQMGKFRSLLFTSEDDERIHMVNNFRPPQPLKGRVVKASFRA
Chain of Carbonic anhydrase 12 (O43570 whole entry): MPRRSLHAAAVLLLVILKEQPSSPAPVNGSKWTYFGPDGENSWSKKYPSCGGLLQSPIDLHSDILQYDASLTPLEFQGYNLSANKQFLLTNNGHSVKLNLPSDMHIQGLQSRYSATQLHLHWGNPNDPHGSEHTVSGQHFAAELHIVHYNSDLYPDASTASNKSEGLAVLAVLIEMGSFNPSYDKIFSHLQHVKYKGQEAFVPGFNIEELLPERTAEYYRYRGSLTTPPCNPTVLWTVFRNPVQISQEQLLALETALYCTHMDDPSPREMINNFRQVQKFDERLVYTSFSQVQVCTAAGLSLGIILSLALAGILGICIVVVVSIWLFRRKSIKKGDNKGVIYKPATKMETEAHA
Chain of Carbonic anhydrase 4 (P22748 whole entry): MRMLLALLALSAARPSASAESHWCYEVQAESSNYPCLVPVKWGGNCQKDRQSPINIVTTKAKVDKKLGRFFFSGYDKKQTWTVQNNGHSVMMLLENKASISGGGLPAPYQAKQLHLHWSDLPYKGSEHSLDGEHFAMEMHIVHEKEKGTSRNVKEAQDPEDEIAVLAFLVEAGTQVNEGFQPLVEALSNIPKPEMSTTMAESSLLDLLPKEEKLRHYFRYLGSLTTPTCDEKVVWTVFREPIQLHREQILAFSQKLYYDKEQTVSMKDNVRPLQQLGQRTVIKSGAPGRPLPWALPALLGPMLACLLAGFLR
Chain of Carbonic anhydrase 14 (Q9ULX7 whole entry): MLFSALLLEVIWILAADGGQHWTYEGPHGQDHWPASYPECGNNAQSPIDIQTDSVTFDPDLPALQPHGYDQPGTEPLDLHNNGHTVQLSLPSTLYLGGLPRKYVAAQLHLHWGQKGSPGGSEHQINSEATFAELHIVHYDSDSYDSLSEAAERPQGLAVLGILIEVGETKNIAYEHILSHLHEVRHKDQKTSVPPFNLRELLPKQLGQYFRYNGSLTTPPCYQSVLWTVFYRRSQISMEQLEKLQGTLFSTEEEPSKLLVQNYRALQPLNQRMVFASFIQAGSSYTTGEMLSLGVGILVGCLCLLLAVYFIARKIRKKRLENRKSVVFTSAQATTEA
Chain of Carbonic anhydrase 1 (P00915 whole entry): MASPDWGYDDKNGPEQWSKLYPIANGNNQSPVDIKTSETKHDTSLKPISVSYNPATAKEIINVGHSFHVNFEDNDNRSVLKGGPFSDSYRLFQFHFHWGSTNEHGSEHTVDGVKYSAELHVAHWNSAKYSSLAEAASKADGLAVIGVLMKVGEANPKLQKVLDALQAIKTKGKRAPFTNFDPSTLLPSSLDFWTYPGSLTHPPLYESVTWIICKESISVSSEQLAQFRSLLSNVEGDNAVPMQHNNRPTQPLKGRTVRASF

Question: What does the source list for Nc1ccc(S(N)(=O)=O)cc1 [SULFANILAMIDE]?
Answer: Ki (Carbonic anhydrase 3): 988 nM; Ki (Carbonic anhydrase 13): 32 nM

Question: Which Ki (Carbonic anhydrase 15) does the source give for COc1cc2oc(=O)ccc2cc1[C@@H](O)CC(C)C here?
Answer: 93100 nM

Question: Which results are given for COC[C@@H](NC(C)=O)C(=O)NCc1ccccc1 [LACOSAMIDE]?
Answer: Ki (Carbonic anhydrase 6): 412 nM; Ki (Carbonic anhydrase 1): 362 nM; Ki (Carbonic anhydrase 15): 461 nM; Ki (Carbonic anhydrase 7): 4450 nM; Ki (Carbonic anhydrase 14): 473 nM; Ki [1]: 341 nM; Ki (Carbonic anhydrase 12): 3710 nM; Ki [2]: 4570 nM; Ki (Carbonic anhydrase 4): 525 nM; Ki (Carbonic anhydrase 9): 353 nM; Ki (Carbonic anhydrase 3): 374 nM; Ki (Carbonic anhydrase 13): 1210 nM
